Test results reported in patent US8389523B2, “Substituted quinoxaline and an agrochemical composition thereof” (Kumiai Chemical Industry Co., Ltd., priority 2007, dated 2013).

What was measured:
Format in all cases: in vivo
Parameters in all cases: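 grade 0 to 5 of growth suppression where 5 is 90% or more and 0 below 10%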
[1] = system: Echinochloa oryzicola Vasing; test: Herbicidal effects in paddy field soil treatment (Test Example 1); settings: paddy field soil treatment; 1000 g of the active ingredient per hectare; wettable powder added dropwise on water surface; 21st day after treatment
In short: (§1)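 Sow seeds in puddled, leveled paddy soil; waterlog to 3 cm depth. On the following day apply water-diluted wettable powder onto the water surface (1000 g a.i./ha). Grow in greenhouse and assess herbicidal effect at day 21.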

[2] = system: Monochoria vaginalis (Burm. f.) Presl var. plantaginea (Roxb.) Solms-Laub.; test: as above; settings: paddy field soil treatment; 1000 g of the active ingredient per hectare; wettable powder added dropwise on water surface; 21st day after treatment
In short: as §1

[3] = system: Scirpus juncoides Roxb. var. ohwianus. T. Koyama; test: as above; settings: paddy field soil treatment; 1000 g of the active ingredient per hectare; wettable powder added dropwise on water surface; 21st day after treatment
In short: as §1

[4] = system: Abutilon theophrasti medicus; test: Herbicidal effects in upland field soil treatment (Test Example 2); settings: 1000 g active ingredient per hectare, 21st day after treatment, criteria of Table 138
In short: (§2)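 Upland soil, seeds sown and covered → diluted WP sprayed uniformly onto soil surface (1000 L/ha; 1000 g a.i./ha) → greenhouse → effect scored day 21.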

[5] = system: Amaranthus viridis L.; test: as above; settings: 1000 g active ingredient per hectare, 21st day after treatment, criteria of Table 138
In short: as §2

[6] = system: Abutilon theophrasti medicus; test: Herbicidal effects in upland field foliar treatment (Test Example 3); settings: criteria of Table 138; for herbicidal effect (index) on Abutilon theophrasti medicus: 1000 g active ingredient per hectare, 14th day after treatment; for herbicidal effects on Abutilon theophrasti medicus: 1000 g of the active ingredient per hectare, 14th day after the treatment, wettable powder
In short: (§3)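 Seeds sown in upland soil, grown 2 weeks in greenhouse; whole-plant overhead spray of diluted wettable powder at 1000 g a.i./ha (1000 L/ha); kept in greenhouse; effects graded by criteria at 14 d.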

[7] = system: Amaranthus viridis L.; test: as above; settings: criteria of Table 138; for herbicidal effect (index) on Amaranthus viridis L.: 1000 g active ingredient per hectare, 14th day after treatment; for herbicidal effects on Amaranthus viridis L.: 1000 g of the active ingredient per hectare, 14th day after the treatment, wettable powder
In short: as §3

[8] = system: Echinochloa crus-galli (L.) P. Beauv. var. crus-galli; test: as above; settings: criteria of Table 138; for herbicidal effect (index) on Echinochloa crus-galli (L.) P. Beauv. var. crus-galli: 1000 g active ingredient per hectare, 14th day after treatment; for herbicidal effects on Echinochloa crus-galli (L.) P. Beauv. var. crus-galli: 1000 g of the active ingredient per hectare, 14th day after the treatment, wettable powder
In short: as §3

COCC(C)n1c(=O)c(C(=O)C2=C(O)CCCC2=O)nc2ccccc21 (stereo not drawn) [Compound I-90]
Herbicidal effects index, Echinochloa oryzicola Vasing [1]: 5 | Herbicidal effects index, Monochoria vaginalis (Burm. f.) Presl var. plantaginea (Roxb.) Solms-Laub. [2]: 5 | Herbicidal effects index, Scirpus juncoides Roxb. var. ohwianus. T. Koyama [3]: 5 | herbicidal effect (index) on Abutilon theophrasti medicus [4]: 5 | herbicidal effect (index) on Amaranthus viridis L. [5]: 5 | herbicidal effect (index) on Abutilon theophrasti medicus [6]: 5 | herbicidal effect (index) on Amaranthus viridis L. [7]: 5 | herbicidal effect (index) on Echinochloa crus-galli (L.) P. Beauv. var. crus-galli [8]: 5

COc1ccc(-n2c(=O)c(C(=O)C3=C(O)CCCC3=O)nc3ccccc32)c(OC)c1OC [II-218]
Herbicidal effects index, Echinochloa oryzicola Vasing [1]: 4 | Herbicidal effects index, Monochoria vaginalis (Burm. f.) Presl var. plantaginea (Roxb.) Solms-Laub. [2]: 5 | Herbicidal effects index, Scirpus juncoides Roxb. var. ohwianus. T. Koyama [3]: 5 | herbicidal effect (index) on Abutilon theophrasti medicus [4]: 5 | herbicidal effect (index) on Amaranthus viridis L. [5]: 5 | herbicidal effects on Abutilon theophrasti medicus [6]: 5 | herbicidal effects on Amaranthus viridis L. [7]: 5 | herbicidal effects on Echinochloa crus-galli (L.) P. Beauv. var. crus-galli [8]: 4

O=C1CCCC(O)=C1C(=O)c1nc2ccccc2n(-c2ccc([N+](=O)[O-])cc2)c1=O [II-131]
Herbicidal effects index, Echinochloa oryzicola Vasing [1]: 5 | Herbicidal effects index, Monochoria vaginalis (Burm. f.) Presl var. plantaginea (Roxb.) Solms-Laub. [2]: 5 | Herbicidal effects index, Scirpus juncoides Roxb. var. ohwianus. T. Koyama [3]: 5 | herbicidal effect (index) on Abutilon theophrasti medicus [4]: 5 | herbicidal effect (index) on Amaranthus viridis L. [5]: 5 | herbicidal effects on Abutilon theophrasti medicus [6]: 5 | herbicidal effects on Amaranthus viridis L. [7]: 5 | herbicidal effects on Echinochloa crus-galli (L.) P. Beauv. var. crus-galli [8]: 5

O=C1CCCC(O)=C1C(=O)c1nc2cccnc2n(-c2ccc(Cl)cc2)c1=O [IV-13]
Herbicidal effects index, Echinochloa oryzicola Vasing [1]: 5 | Herbicidal effects index, Monochoria vaginalis (Burm. f.) Presl var. plantaginea (Roxb.) Solms-Laub. [2]: 5 | Herbicidal effects index, Scirpus juncoides Roxb. var. ohwianus. T. Koyama [3]: 5 | herbicidal effect (index) on Abutilon theophrasti medicus [4]: 5 | herbicidal effect (index) on Amaranthus viridis L. [5]: 5 | herbicidal effects on Abutilon theophrasti medicus [6]: 5 | herbicidal effects on Amaranthus viridis L. [7]: 5 | herbicidal effects on Echinochloa crus-galli (L.) P. Beauv. var. crus-galli [8]: 5

O=C1CCCC(O)=C1C(=O)c1nc2ccccc2n(-c2ccc(Cl)cc2)c1=O [II-13]
Herbicidal effects index, Echinochloa oryzicola Vasing [1]: 5 | Herbicidal effects index, Monochoria vaginalis (Burm. f.) Presl var. plantaginea (Roxb.) Solms-Laub. [2]: 5 | Herbicidal effects index, Scirpus juncoides Roxb. var. ohwianus. T. Koyama [3]: 5 | herbicidal effect (index) on Abutilon theophrasti medicus [4]: 5 | herbicidal effect (index) on Amaranthus viridis L. [5]: 5 | herbicidal effect (index) on Abutilon theophrasti medicus [6]: 5 | herbicidal effect (index) on Amaranthus viridis L. [7]: 5 | herbicidal effect (index) on Echinochloa crus-galli (L.) P. Beauv. var. crus-galli [8]: 5

O=C1CCCC(O)=C1C(=O)c1nc2ccccc2n(-c2cnccn2)c1=O [I-199]
Herbicidal effects index, Echinochloa oryzicola Vasing [1]: 5 | Herbicidal effects index, Monochoria vaginalis (Burm. f.) Presl var. plantaginea (Roxb.) Solms-Laub. [2]: 5 | Herbicidal effects index, Scirpus juncoides Roxb. var. ohwianus. T. Koyama [3]: 5 | herbicidal effect (index) on Abutilon theophrasti medicus [4]: 5 | herbicidal effect (index) on Amaranthus viridis L. [5]: 5 | herbicidal effect (index) on Abutilon theophrasti medicus [6]: 5 | herbicidal effect (index) on Amaranthus viridis L. [7]: 5 | herbicidal effect (index) on Echinochloa crus-galli (L.) P. Beauv. var. crus-galli [8]: 5

COCC(C)n1c(=O)c(C(=O)C2=C(O)CCCC2=O)nc2cccnc21 (stereo not drawn) [III-90]
Herbicidal effects index, Echinochloa oryzicola Vasing [1]: 5 | Herbicidal effects index, Monochoria vaginalis (Burm. f.) Presl var. plantaginea (Roxb.) Solms-Laub. [2]: 5 | Herbicidal effects index, Scirpus juncoides Roxb. var. ohwianus. T. Koyama [3]: 5 | herbicidal effect (index) on Abutilon theophrasti medicus [4]: 5 | herbicidal effect (index) on Amaranthus viridis L. [5]: 5 | herbicidal effects on Abutilon theophrasti medicus [6]: 5 | herbicidal effects on Amaranthus viridis L. [7]: 5 | herbicidal effects on Echinochloa crus-galli (L.) P. Beauv. var. crus-galli [8]: 5

Cc1cc(-n2c(=O)c(C(=O)C3=C(O)C4CCC(C4)C3=O)nc3ccccc32)no1 (stereo not drawn) [I-148]
Herbicidal effects index, Echinochloa oryzicola Vasing [1]: 5 | Herbicidal effects index, Monochoria vaginalis (Burm. f.) Presl var. plantaginea (Roxb.) Solms-Laub. [2]: 5 | Herbicidal effects index, Scirpus juncoides Roxb. var. ohwianus. T. Koyama [3]: 5 | herbicidal effect (index) on Abutilon theophrasti medicus [4]: 5 | herbicidal effect (index) on Amaranthus viridis L. [5]: 5 | herbicidal effect (index) on Abutilon theophrasti medicus [6]: 5 | herbicidal effect (index) on Amaranthus viridis L. [7]: 5 | herbicidal effect (index) on Echinochloa crus-galli (L.) P. Beauv. var. crus-galli [8]: 5

O=C1CCCC(O)=C1C(=O)c1nc2ccccc2n(-c2ccc(F)cn2)c1=O [I-176]
Herbicidal effects index, Echinochloa oryzicola Vasing [1]: 5 | Herbicidal effects index, Monochoria vaginalis (Burm. f.) Presl var. plantaginea (Roxb.) Solms-Laub. [2]: 5 | Herbicidal effects index, Scirpus juncoides Roxb. var. ohwianus. T. Koyama [3]: 5 | herbicidal effect (index) on Abutilon theophrasti medicus [4]: 5 | herbicidal effect (index) on Amaranthus viridis L. [5]: 5 | herbicidal effect (index) on Abutilon theophrasti medicus [6]: 5 | herbicidal effect (index) on Amaranthus viridis L. [7]: 5 | herbicidal effect (index) on Echinochloa crus-galli (L.) P. Beauv. var. crus-galli [8]: 5

CC(C)n1c(=O)c(C(=O)C2=C(O)CCCC2=O)nc2cccnc21 [III-13]
Herbicidal effects index, Echinochloa oryzicola Vasing [1]: 5 | Herbicidal effects index, Monochoria vaginalis (Burm. f.) Presl var. plantaginea (Roxb.) Solms-Laub. [2]: 5 | Herbicidal effects index, Scirpus juncoides Roxb. var. ohwianus. T. Koyama [3]: 5 | herbicidal effect (index) on Abutilon theophrasti medicus [4]: 5 | herbicidal effect (index) on Amaranthus viridis L. [5]: 5 | herbicidal effects on Abutilon theophrasti medicus [6]: 5 | herbicidal effects on Amaranthus viridis L. [7]: 5 | herbicidal effects on Echinochloa crus-galli (L.) P. Beauv. var. crus-galli [8]: 4

O=C1CCCC(O)=C1C(=O)c1nc2ccccc2n(-c2ccc3c(c2)OC(F)(F)O3)c1=O [I-207]
Herbicidal effects index, Echinochloa oryzicola Vasing [1]: 4 | Herbicidal effects index, Monochoria vaginalis (Burm. f.) Presl var. plantaginea (Roxb.) Solms-Laub. [2]: 5 | Herbicidal effects index, Scirpus juncoides Roxb. var. ohwianus. T. Koyama [3]: 5 | herbicidal effect (index) on Abutilon theophrasti medicus [4]: 5 | herbicidal effect (index) on Amaranthus viridis L. [5]: 5 | herbicidal effect (index) on Abutilon theophrasti medicus [6]: 5 | herbicidal effect (index) on Amaranthus viridis L. [7]: 5 | herbicidal effect (index) on Echinochloa crus-galli (L.) P. Beauv. var. crus-galli [8]: 5

Cc1cc(Cn2c(=O)c(C(=O)C3=C(O)CCCC3=O)nc3ccccc32)on1 [I-213]
Herbicidal effects index, Echinochloa oryzicola Vasing [1]: 4 | Herbicidal effects index, Monochoria vaginalis (Burm. f.) Presl var. plantaginea (Roxb.) Solms-Laub. [2]: 5 | Herbicidal effects index, Scirpus juncoides Roxb. var. ohwianus. T. Koyama [3]: 5 | herbicidal effect (index) on Abutilon theophrasti medicus [4]: 5 | herbicidal effect (index) on Amaranthus viridis L. [5]: 5 | herbicidal effect (index) on Abutilon theophrasti medicus [6]: 5 | herbicidal effect (index) on Amaranthus viridis L. [7]: 5 | herbicidal effect (index) on Echinochloa crus-galli (L.) P. Beauv. var. crus-galli [8]: 5

O=C1CCCC(O)=C1C(=O)c1nc2ccccc2n(-c2cccc(OC(F)F)c2)c1=O [II-90]
Herbicidal effects index, Echinochloa oryzicola Vasing [1]: 5 | Herbicidal effects index, Monochoria vaginalis (Burm. f.) Presl var. plantaginea (Roxb.) Solms-Laub. [2]: 5 | Herbicidal effects index, Scirpus juncoides Roxb. var. ohwianus. T. Koyama [3]: 5 | herbicidal effect (index) on Abutilon theophrasti medicus [4]: 5 | herbicidal effect (index) on Amaranthus viridis L. [5]: 5 | herbicidal effects on Abutilon theophrasti medicus [6]: 5 | herbicidal effects on Amaranthus viridis L. [7]: 5 | herbicidal effects on Echinochloa crus-galli (L.) P. Beauv. var. crus-galli [8]: 5

O=C1CCCC(O)=C1C(=O)c1nc2ccccc2n(-c2ccon2)c1=O [I-144]
Herbicidal effects index, Echinochloa oryzicola Vasing [1]: 5 | Herbicidal effects index, Monochoria vaginalis (Burm. f.) Presl var. plantaginea (Roxb.) Solms-Laub. [2]: 5 | Herbicidal effects index, Scirpus juncoides Roxb. var. ohwianus. T. Koyama [3]: 5 | herbicidal effect (index) on Abutilon theophrasti medicus [4]: 5 | herbicidal effect (index) on Amaranthus viridis L. [5]: 5 | herbicidal effect (index) on Abutilon theophrasti medicus [6]: 5 | herbicidal effect (index) on Amaranthus viridis L. [7]: 5 | herbicidal effect (index) on Echinochloa crus-galli (L.) P. Beauv. var. crus-galli [8]: 5

COCCCn1c(=O)c(C(=O)C2=C(O)CCCC2=O)nc2ccccc21 [Compound I-93]
Herbicidal effects index, Echinochloa oryzicola Vasing [1]: 5 | Herbicidal effects index, Monochoria vaginalis (Burm. f.) Presl var. plantaginea (Roxb.) Solms-Laub. [2]: 5 | Herbicidal effects index, Scirpus juncoides Roxb. var. ohwianus. T. Koyama [3]: 5 | herbicidal effect (index) on Abutilon theophrasti medicus [4]: 4 | herbicidal effect (index) on Amaranthus viridis L. [5]: 5 | herbicidal effect (index) on Abutilon theophrasti medicus [6]: 5 | herbicidal effect (index) on Amaranthus viridis L. [7]: 5 | herbicidal effect (index) on Echinochloa crus-galli (L.) P. Beauv. var. crus-galli [8]: 5

O=C1CCCC(O)=C1C(=O)c1nc2cccnc2n(-c2ccc(C3CC3)cc2)c1=O [IV-33]
Herbicidal effects index, Echinochloa oryzicola Vasing [1]: 5 | Herbicidal effects index, Monochoria vaginalis (Burm. f.) Presl var. plantaginea (Roxb.) Solms-Laub. [2]: 5 | Herbicidal effects index, Scirpus juncoides Roxb. var. ohwianus. T. Koyama [3]: 5 | herbicidal effect (index) on Abutilon theophrasti medicus [4]: 5 | herbicidal effect (index) on Amaranthus viridis L. [5]: 5 | herbicidal effects on Abutilon theophrasti medicus [6]: 5 | herbicidal effects on Amaranthus viridis L. [7]: 5 | herbicidal effects on Echinochloa crus-galli (L.) P. Beauv. var. crus-galli [8]: 5

COc1cc(F)c(-n2c(=O)c(C(=O)C3=C(O)CCCC3=O)nc3ccccc32)cc1F [II-219]
Herbicidal effects index, Echinochloa oryzicola Vasing [1]: 5 | Herbicidal effects index, Monochoria vaginalis (Burm. f.) Presl var. plantaginea (Roxb.) Solms-Laub. [2]: 5 | Herbicidal effects index, Scirpus juncoides Roxb. var. ohwianus. T. Koyama [3]: 5 | herbicidal effect (index) on Abutilon theophrasti medicus [4]: 5 | herbicidal effect (index) on Amaranthus viridis L. [5]: 5 | herbicidal effects on Abutilon theophrasti medicus [6]: 5 | herbicidal effects on Amaranthus viridis L. [7]: 5 | herbicidal effects on Echinochloa crus-galli (L.) P. Beauv. var. crus-galli [8]: 5

O=C1CCCC(O)=C1C(=O)c1nc2ccccc2n(-c2cccc(F)c2)c1=O [II-7]
Herbicidal effects index, Echinochloa oryzicola Vasing [1]: 5 | Herbicidal effects index, Monochoria vaginalis (Burm. f.) Presl var. plantaginea (Roxb.) Solms-Laub. [2]: 5 | Herbicidal effects index, Scirpus juncoides Roxb. var. ohwianus. T. Koyama [3]: 5 | herbicidal effect (index) on Abutilon theophrasti medicus [4]: 5 | herbicidal effect (index) on Amaranthus viridis L. [5]: 5 | herbicidal effect (index) on Abutilon theophrasti medicus [6]: 5 | herbicidal effect (index) on Amaranthus viridis L. [7]: 5 | herbicidal effect (index) on Echinochloa crus-galli (L.) P. Beauv. var. crus-galli [8]: 5
